The text below walks through data of US7799829B2, “Acyloxyalkyl carbamate prodrugs of α-amino acids, methods of synthesis and use” (XenoPort, Inc., priority 2006, dated 2010).

Data set [1] in a line: Bioavailability of α-amino acid following intracolonic administration of prodrugs in rats (intravenous α-amino acid as reference). It is filed as in vivo. To be noted: for colonic bioavailability of 1-aminocyclopropanecarboxylic acid: intracolonic administration of prodrug, 1-aminocyclopropanecarboxylic acid released post absorption. As to the method:
Rats are obtained commercially and were pre-cannulated in the both the ascending colon and the jugular vein. Animals were conscious at the time of the experiment. All animals were fasted overnight and until 4 hours after dosing of an α-amino acid prodrug. An α-amino acid or the corresponding prodrug was administered as a solution (in water) directly into the colon via the cannula at a dose equivalent to about 75 mg or other appropriate dose of an α-amino acid per kg body weight. Blood samples (0.3 mL) were obtained from the jugular cannula at intervals over 8 hours and were quenched immediately by addition of sodium metabisulfite to prevent oxidation of the α-amino acid. Blood was then further quenched with methanol/perchloric acid to prevent hydrolysis of the prodrug. Blood samples were analyzed as described.
300 μL of methanol was added to 1.5 mL tubes. Rat or monkey blood (100 μL) was collected at different times into the tubes and vortexed to mix. 90 μL of blood was quenched with 300 μL methanol. 10 μL of a standard stock solution containing an α-amino acid (0.04, 0.2, 1, 5, 25, and 100 μg/mL) and 20 μL of p-chlorophenylalanine eas added to 90 μL of blood to make up a final calibration standard (0.004, 0.02, 0.1, 0.5, 2.5, and 10 μg/mL). Samples were vortexed and centrifuged at 3400 rpm for 20 min. The supernatant was analyzed by LC/MS/MS.
An API 4000 LC/MS/MS spectrometer equipped with Agilent 1100 binary pumps and a CTC HTS-PAL autosampler and an Agilent Zorbax Eclipse XBD-C8, 4.6×150 mm, 3.5 μM column was used for the analysis. The mobile phase was 0.02% heptafluorobutyric acid in water (A) and 0.02% heptafluorobutyric acid in acetonitrile (B). The flow rate was 1.0 mL/min. The gradient condition was: 5% B for 2 min, then to 10% B for 1 min. Then the mobile phase was returned to 5% B for 1.1 min. A TurboIonSpray source was used in the API 4000. The analysis was done in either negative ion mode or positive ion mode as appropriate and the MRM transition for each analyte was optimized using a standard solution. 20 μL of the samples were injected. Non-compartmental analysis was performed using WinNonlin software (v.3.1 Professional Version, Pharsight Corporation, Mountain View, Calif.) on individual animal profiles. Summary statistics on major parameter estimates was performed for Cmax (peak observed concentration following dosing), Tmax (time to maximum concentration is the time at which the peak concentration was observed), AUC(0-t) (area under the plasma concentration-time curve from time zero to last collection time, estimated using the log-linear trapezoidal method), AUC(0-∞), (area under the plasma concentration time curve from time zero to infinity, estimated using the log-linear trapezoidal method to the last collection time with extrapolation to infinity), and t1/2,z (terminal half-life).
The oral or intracolonic bioavailability (F) of an α-amino acid was determined by comparing the area under the α-amino acid concentration vs. time curve (AUC) following oral or intracolonic administration of α-amino acid or prodrug thereof with the AUC of the α-amino acid concentration vs. time curve following intravenous administration of the α-amino acid on a dose normalized basis (e.g., % Fic=AUC (following intracolonic administration of an α-amino acid prodrug)/AUC (following intravenous administration of an equivalent dose of the corresponding α-amino acid)). […] In monkeys, following, colonic administration of α-amino acid prodrug 2, the bioavailability of 1-aminocyclopropanecarboxylic acid was determined to be about 4-fold greater than after colonic administration of 1-aminocyclopropanecarboxylic acid itself (at 20 mg-eq/kg).

Molecules are shown by their SMILES.

With `NC1(C(=O)O)CC1` [1-aminocyclopropanecarboxylic acid, reference compound], the AUC(0-inf) in data set [1] (rat, whole blood, intravenous, dosed at 20 mg-eq/kg, used as reference for bioavailability calculations, read-out: AUCinf for the intravenously administered α-amino acid) was 85900 ng·h/mL.
Consider `O=C(/C=C/c1ccccc1)OCCOC(=O)NC1(C(=O)O)CC1` [Compound 16, 1-{[((2E)-3-Phenylprop-2-enoyloxy)ethoxy]carbonylamino}cyclopropanecarboxylic Acid], for which the melting point lay in the range of 169.3 to 172.2 °C. The “colonic bioavailability of 1-aminocyclopropanecarboxylic acid” value (from here on “colonic bioavailability”) in data set [1] was “substantial”.
For the compound `Cc1ccc(C(=O)OCCOC(=O)NC2(C(=O)O)CC2)cc1` [Compound 21, 1-{[(4-Methylphenylcarbonyloxy)ethoxy]carbonylamino}cyclopropanecarboxylic Acid], the melting point lay within 177.7 to 182.5 °C.
With `CCCCCCC(=O)OCCOC(=O)NC1(C(=O)O)CC1` [Compound 13, 1-[(Heptanoyloxyethoxy)carbonylamino]cyclopropanecarboxylic Acid], the melting point fell in the range of 112.6 to 113.2 °C.
The compound `CCCC(=O)OC(C)OC(=O)NC1(C(=O)O)CC1` (stereo not drawn) [Compound 7, 1-(1-Butyryloxy-ethoxycarbonylamino)-cyclopropanecarboxylic Acid] yielded a melting point of 90.4 to 93.4 °C.
Same read-out and setting: next, `O=C(CCc1ccccc1)OCCOC(=O)NC1(C(=O)O)CC1` [Compound 17, 1-{[(3-Phenylpropanoyloxy)ethoxy]carbonylamino}cyclopropanecarboxylic Acid]: 132.9 to 134.4 °C.
For the compound `CC(C)C(OC(=O)NC1(C(=O)O)CC1)OC(=O)c1ccccc1` (stereo not drawn) [Compound 12, 1-[(2-Methyl-1-phenylcarbonyloxypropoxy)carbonylamino]cyclopropanecarboxylic Acid], the “colonic bioavailability” value in data set [1] was “substantial”.
Compound `CC(C)C(OC(=O)NC1(C(=O)O)CC1)OC(=O)C1CCCCC1` (stereo not drawn) [Compound 11, 1-[(1-Cyclohexylcarbonyloxy-2-methylpropoxy)carbonylamino]cyclopropanecarboxylic Acid] yielded a melting point of 156 to 158.5 °C. The “colonic bioavailability” value in data set [1] is recorded as “substantial”.
As for `O=C(Cc1ccccc1)OCCOC(=O)NC1(C(=O)O)CC1`, the melting point fell in the range of 142.1 to 145.6 °C.
In turn, `CC(C)C(OC(=O)/C=C/c1ccccc1)OC(=O)NC1(C(=O)O)CC1` (stereo not drawn) [Compound 18, 1-{[1-((2E)-3-Phenylprop-2-enoyloxy)-2-methylpropoxy]carbonylamino}cyclopropanecarboxylic Acid] yielded a melting point of 147.8 to 150.2 °C. Also, in data set [1], the “colonic bioavailability” value was “substantial”.
For the compound `Cc1ccccc1C(=O)OCCOC(=O)NC1(C(=O)O)CC1` [Compound 3, 1-{[(2-Methylphenylcarbonyloxy)ethoxy]carbonylamino}cyclopropanecarboxylic Acid], the “colonic bioavailability” value in data set [1] is recorded as “substantial”.
Compound `CC(C)C(=O)OC(OC(=O)NC1(C(=O)O)CC1)C(C)C` (stereo not drawn) [Compound 2, 1-(1-Isobutyryloxy-2-methyl-propoxycarbonylamino)-cyclopropanecarboxylic Acid] gave a melting point of 127.4 to 129 °C. The “colonic bioavailability” value in data set [1] is given as “substantial”.
`O=C(NC1(C(=O)O)CC1)OCCOC(=O)c1ccccc1` [Compound 4, 1-[(Phenylcarbonyloxyethoxy)carbonylamino]cyclopropanecarboxylic Acid] displayed a melting point of 173.8 to 175.8 °C. For the same compound, in data set [1], the “colonic bioavailability” value was “substantial”.
In turn, `CC(OC(=O)NC1(C(=O)O)CC1)OC(=O)C(C)C` (stereo not drawn) [Compound 1, 1-(1-Isobutyryloxy-ethoxycarbonylamino)-cyclopropanecarboxylic Acid] had a melting point of 127 to 129.5 °C.
In the case of `O=C(NC1(C(=O)O)CC1)OCCOC(=O)C1CCCCC1` [Compound 10, 1-[(Cyclohexylcarbonyloxyethoxy)carbonylamino]cyclopropanecarboxylic Acid], the melting point lay in the range of 123.6 to 125.3 °C.
On the same count and under the same terms, next, `CC(C)CC(=O)OC(C)OC(=O)NC1(C(=O)O)CC1` (stereo not drawn) [Compound 5, 1-[1-(3-Methyl-butyryloxy)-ethoxycarbonylamino]-cyclopropanecarboxylic Acid]: 116.6 to 119.1 °C.
For `CC(C)C(=O)OC(OC(=O)NC1(C(=O)[O-])CC1)C(C)C.[Na+]` (stereo not drawn) [Compound 23, 1-{[2-Methyl-1-(2-methylpropanoyloxy)propoxy]carbonylamino}Sodium Cyclopropanoate], in data set [1], the “colonic bioavailability” value is reported as “substantial”.
As to `COc1ccc(C(=O)OCCOC(=O)NC2(C(=O)O)CC2)cc1OC` [Compound 14, 1-{[(3,4-Dimethoxyphenylcarbonyloxy)ethoxy]carbonylamino}cyclopropanecarboxylic Acid], the melting point lay in the range of 171.8 to 173.6 °C.
Compound `CCCCC(=O)OC(C)OC(=O)NC1(C(=O)O)CC1` (stereo not drawn) [Compound 8, 1-(1-Pentanoyloxy-ethoxycarbonylamino)-cyclopropanecarboxylic Acid] had a melting point of 148 to 151.1 °C.

As a reminder, the melting point is the temperature, or range, at which the solid turns liquid.
